From patent US8815946B2, “Inhibition of proliferation and fibrotic response of activated corneal stromal cells” (University of Pittsburgh—of the Commonwealth System of …, priority 2008, dated 2014)

Legend:
[1] = test system: type III collagen, tenascin and fibronectin; assay: Western blot of TGF-β1 activated rabbit corneal keratocytes: type III collagen, tenascin, fibronectin; assay type: cell-based; conditions: TGF-β1 (10 ng/ml)+1% FBS, two days, compared to controls with no treatment
Protocol: FIGS. 19A and 19B. Western blot analyses: Rabbit corneal keratocytes were isolated and cultured in serum-free DMEM/F12 into 60 mm tissue culture dishes. After 24 hrs of incubation, the media were replaced with DMEM/F12 medium containing TGF-β1(10 ng/ml)+1% FBS without (control) or with EP or EP-derivatives for two days. The cells were extracted in RIPA buffer and the extracts containing 5 μg of total proteins were loaded per lane for Western blot analysis.
Keratocytes or fibroblasts grown under different culture conditions were extracted in RIPA buffer (9.1 mM dibasic sodium phosphate, 1.7 mM monobasic sodium phosphate, 150 mM NaCl, pH, 7.4, 1% Nonidet P-40, 0.5% sodium deoxycholate, 0.1% SDS, 0.03 TIU/mL aprotinin, 1 mM sodium orthovanadate, and 100 μg/mL phenylmethylsulfonyl fluoride (PMSF)). Aliquots of cell extracts containing 50 or 100 μg protein were subjected to SDS-PAGE. Protein bands on SDS-PAGE were electrophoretically transferred to IMMOBILON-P™ membrane (Millipore Corp., Bedford, Mass.), stained with 0.1% Coomassie blue 250 in 40% methanol/1% acetic acid for 1 minute, destained one to three times with 50% methanol/1% acetic acid, scanned for densitometric comparisons of relative concentrations of proteins per lane, destained with methanol, and subjected to Western blot analysis. Immunoreactive bands were detected using chemiluminescence Western chemiluminescence reagents.
As described in Example 1, corneal stromal cells were isolated from rabbit corneas and cultured using the same procedures. The keratocytes in serum free media were treated with b-FGF (40 ng/ml)+HS (5 μg/ml) with or without 15 mM EP or 1, 2.5 or 5 mM following EP derivatives: 2-oxopropionic acid 3-methoxyphenyl ester, 2-oxopropionic acid 2-ethoxyethyl ester, 2-oxopropionic acid 2-chloroethyl ester, 2-oxopropionic acid isopropyl ester, 2-oxopropionic acid butyl ester, 2-oxopropionic acid p-tolyl ester, 2-oxopropionic acid tert-butyl ester. […] The relative levels of the expression of specific proteins were analyzed by Western blot analyses of the cell lysates as described supra.

cellular fibronectin = assay: Western blot analyses of cellular fibronectin, human corneal stromal cells; assay type: cell-based; conditions: TGF-β1, two and four days
Protocol: FIG. 7. Western blot analyses of cellular fibronectin. Human corneal stromal cells in P2 growing in DMEM/F12 with 10% FBS were subcultured into 60 mm tissue culture dishes. After 24 hrs of incubation, the media were replaced with DMEM/F12 medium containing 1% FBS and TGF-β1 with or without (control) different EP concentrations as indicated and incubated for two and four days (media were changed every 24 hours). The cells were extracted in RIPA buffer and the extracts containing 5 μg of total proteins were loaded per lane for Western blot analysis.
Keratocytes or fibroblasts grown under different culture conditions were extracted in RIPA buffer (9.1 mM dibasic sodium phosphate, 1.7 mM monobasic sodium phosphate, 150 mM NaCl, pH, 7.4, 1% Nonidet P-40, 0.5% sodium deoxycholate, 0.1% SDS, 0.03 TIU/mL aprotinin, 1 mM sodium orthovanadate, and 100 μg/mL phenylmethylsulfonyl fluoride (PMSF)). Aliquots of cell extracts containing 50 or 100 μg protein were subjected to SDS-PAGE. […] Immunoreactive bands were detected using chemiluminescence Western chemiluminescence reagents. […]

Ki67 = Ki67 staining of activated rabbit corneal keratocytes; assay type: cell-based; conditions: bFGF (40 ng/ml)+HS (5 μg/ml), 15 mM EP, two days
Protocol: FIGS. 18A-18B. Rabbit corneal keratocytes were activated with bFGF (40 ng/ml)+HS (5 μg/ml) without EP (FIG. 18A) or with 15 mM EP (FIG. 18B) and after two days the cells were triple stained with anti-Ki67 antibodies (yellow), phalloidin (red, actin filaments) and DAPI (blue, nucleus).
As described in Example 1, corneal stromal cells were isolated from rabbit corneas and cultured using the same procedures. The keratocytes in serum free media were treated with b-FGF (40 ng/ml)+HS (5 μg/ml) with or without 15 mM EP or 1, 2.5 or 5 mM following EP derivatives: 2-oxopropionic acid 3-methoxyphenyl ester, 2-oxopropionic acid 2-ethoxyethyl ester, 2-oxopropionic acid 2-chloroethyl ester, 2-oxopropionic acid isopropyl ester, 2-oxopropionic acid butyl ester, 2-oxopropionic acid p-tolyl ester, 2-oxopropionic acid tert-butyl ester. Two days following the treatments, the cells were fixed and stained for Ki67 (a nuclear antigen expressed during the G1/S or S phase of the cell cycle) as described supra. The relative levels of the expression of specific proteins were analyzed by Western blot analyses of the cell lysates as described supra.

[2] = cited from earlier work
fibronectin = assay: Immunocytochemical analysis of fibronectin expression, rabbit corneal stromal cells; assay type: cell-based; conditions: rabbit corneal cells treated with TGF-β1
Protocol: FIGS. 6A-6B. Immunocytochemical analysis of fibronectin expression. Normal human stromal cells (FIG. 6A) or rabbit corneal stromal cells (FIG. 6B) in P2 growing in DMEM/F12 with 10% FBS were subcultured into 35 mm tissue culture dishes. After 24 hrs of incubation, the media were replaced with DMEM/F12 medium containing 1% FBS and TGF-β1 with or without (control) 10 mM EP and incubated for four days (media were changed every 24 hours). The cells were fixed and double stained for fibronectin (green) and phalloidin (red) using an indirect fluorescence technique as described herein.
For immunocytochemical analyses, the cells were cultured on glass cover slips or tissue culture dishes. Cells were rinsed with phosphate-buffered saline (PBS), fixed with paraformaldehyde-lysine-periodate and permeabilized with PIPES buffer containing 0.2% Triton X-100, as described previously (Guerriero et al., Invest. Opthalmol. Vis. Sci. 2007; 48: 627-635). Fixed and permeabilized cells were reacted with 10% heat-inactivated goat serum in PBS, pH 7.5, for 45 minutes to block the nonspecific binding of the secondary antibody, rinsed with PBS, and then treated with the primary and secondary antibodies as described previously (Guerriero et al. Invest. Opthalmol. Vis. Sci. 2007; 48: 627-635). Primary antibodies included monoclonal rat anti-α smooth muscle actin (SMA) and anti-fibronectin. […]

For `CCOC(=O)C(C)=O` [ethyl pyruvate], which “levels of type III collagen, tenascin and fibronectin (Western blot)” value [1] is on record?
The value was “reduced levels”.

And the “downregulation of fibronectin by Western blot of cell extracts (including the matrix)” value (cellular fibronectin)?
Its value is “confirmed”.

And the “Ki67 positive cells (staining, qualitative)” value (Ki67)?
The value was “only a few Ki67 positive cells”.

What about the “time to diffuse into the aqueous humor” value ([2]; applied on the surface of the eye) of the same molecule?
Its value is no more than 15 min.

What about the “entry into the anterior chamber” value ([2]; diffuses through conjunctival tissue or into corneal stroma) of the same molecule?
Its value is “within minutes”.

What about the elimination half-life ([2]; in vivo) of the same molecule?
Its elimination half-life is “approximately 90 minutes”.

What about the “fibronectin deposition in the matrix (immunocytochemical)” value (fibronectin) of the same molecule?
Its value is “concentration dependent downregulation”.
